Measured values as given in patent publication US6716987B1, “Derivatives of benzofuran or benzodioxazole compounds” (Kyowa Hakko Kogyo Co., Ltd., priority 1995, dated 2004).

Experiments:
TNF α production = test: Suppression effect on TNF α production in the LPS induced mouse sepsis model; type: in vivo; conditions: Method A; dose 10 mg/kg orally 90 min before LPS; serum TNF α
Experimental: Lipopolysaccharide (LPS, DIFCO Laboratories) was dissolved in physiological saline to make a final concentration of 0.2 mg/ml. The resulting solution was administered intravenously to the tail of Balb/c male mice (7-week-old) (Charls River Japan Co.) at 200 μl per 20 g body weight of 5 to 6 mice/group. One hour after administration, blood was drawn from a fundus oculi vein of each mouse to obtain serum. […] The concentration of TNF a in serum was measured by enzyme-linked immunosorbent assay (ELISA method) as follows: […] anti-mouse TNF a monoclonal antibody (Pharmingen Inc.) diluted with a phosphate buffer solution (PBS) was added to a 96-well microtiter plate (Nalge Nunc International immuno-plate <MaxiSorp=) at […]; allowed to stand at 4° C. for 12 hours for coating; mixed with […] of a phosphate buffer solution containing 1% bovine serum albumin (BSA) (1% BSA-PBS); allowed to stand at room temperature for 1 hour to block the non-specific binding; washed with phosphate buffer solution; mixed with […] of the subject serum diluted two-fold with 1% BSA-PBS; and allowed to stand at room temperature for 2 hours. Furthermore, recombinant mouse TNF α (Genzyme Corp.) diluted with 1% BSA-PBS was similarly treated and used as a standard substance. These plates were washed three times with PBS (0.05% Tween-PBS) containing 0.05% polyoxyethylenesorbitan monolaurate (Tween 20, Wako Pure Chemical Industries, Ltd.), mixed with […] of biotin-labelled anti-mouse TNF α monoclonal antibody (Method A: Pharmingen Inc.; Method B: Genzyme Corp) diluted with 1% BSA-PBS to make a concentration of 1 mg/ml, allowed to stand at room temperature for 1 hour, washed three times with 0.05% Tween-PBS, mixed with […] of horseradish peroxidase avidin D (Vector Laboratories Inc.) diluted four-thousand-fold with 1% BSA-PBS, and allowed to stand at room temperature for 30 min. Finally, these plates were washed three times with 0.05% Tween-PBS, and mixed with […] of 3,3′,5,5′-tetramethylbenzidine. After color development, the reaction was stopped by adding […] of 10% sulfuric acid solution, and then, the absorbance at 450 nm was measured. The concentration of TNF α in serum was calculated from a calibration curve.
The rate of suppression of each test compound on TNF α production was obtained from the following formula:
Suppression rate=(A−B)/A,
wherein A is the TNF α concentration of the control group and B is the TNF α concentration of the experimental group.
In the above formula, the TNF α concentration of the control group is defined as the value obtained in the absence of the test compound (0.5% methyl cellulose solution alone).
Employed as the reference compounds were 7-methoxy-4-[1-oxo-2-(4-pyridyl)ethyl]-spiro[2,3-dihydrobenzofuran-2,1′-cyclopentane] hydrochloride (disclosed in Example 100 of Japanese Patent Laid-Open No. 8-836624 and hereinafter referred to as Compound RA) having the formula (RA) and 2-benzoyl-4-(3,5-dichloro-4-pyridyl)aminocarbonyl)-7-methoxybenzofuran (disclosed in Example 35 of Japanese Patent Laid-Open No. 8-534708 and hereinafter referred to as Compound RB) having the formula (RB): [drawing 660]

Sunkus murinus = test: Effect on vomiting induction in male Sunkus murinus; type: in vivo; conditions: dose 10 mg/kg i.p., observed for 1 hour after administration
Experimental: Five to fifteen male Sunkus murinus per group weighing approximately 60 g were used for the test. According to the method of Matsumoto, et. al. [Japan J. Pharmacol., 48, 303 (1988)], Sunkus murinus were placed separately into metal wire cages (width 15 cm×length 21 cm×height 15 cm). Each sample of the test compound was suspened in a 0.5% Tween 80 physiological saline solution and administered intraperitoneally (i.p.) at a dose of 10 ml/kg. […] In the group that was administered the test-compound, the results are represented as the number of vomiting animals/the number of experimental animals. Compound RA was employed as a reference compound.

phosphodiesterase 4A = molecular target: T1, phosphodiesterase 4A (Homo sapiens, UniProt P27815); test: Recombinant human PDE4A assay; type: biochemical; conditions: for inhibition at 0.1 µM: 10^−7 M, read-out: Enzyme Inhibitory Activity (%, 10^−7 M)
T1 construct: made in house; host or cells: E. coli
T1 sequence (P27815 224-886 limits assumed): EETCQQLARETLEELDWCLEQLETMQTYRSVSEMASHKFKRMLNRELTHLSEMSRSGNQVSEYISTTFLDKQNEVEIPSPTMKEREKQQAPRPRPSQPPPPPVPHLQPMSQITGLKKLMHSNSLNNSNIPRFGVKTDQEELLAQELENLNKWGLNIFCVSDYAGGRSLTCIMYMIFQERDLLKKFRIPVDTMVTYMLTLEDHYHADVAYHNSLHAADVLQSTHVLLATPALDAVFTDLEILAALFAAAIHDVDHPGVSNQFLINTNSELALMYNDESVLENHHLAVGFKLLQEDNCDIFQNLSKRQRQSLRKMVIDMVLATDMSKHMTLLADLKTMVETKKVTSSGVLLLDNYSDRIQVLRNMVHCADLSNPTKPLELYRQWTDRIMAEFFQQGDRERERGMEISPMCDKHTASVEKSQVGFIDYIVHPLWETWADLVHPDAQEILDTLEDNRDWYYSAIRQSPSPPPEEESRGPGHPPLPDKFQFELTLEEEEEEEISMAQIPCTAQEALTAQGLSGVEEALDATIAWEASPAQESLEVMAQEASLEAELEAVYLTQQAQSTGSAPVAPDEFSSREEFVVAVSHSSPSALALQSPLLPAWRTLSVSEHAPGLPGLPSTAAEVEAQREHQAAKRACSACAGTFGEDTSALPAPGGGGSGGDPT

Compound	inhibition at 0.1 µM (phosphodiesterase 4A) [%]	melting point [°C]	also measured
7-(4-carboxy-4-pyridyl)-4-methoxy-spiro[1,3-benzodioxole-2,1=-cyclopentane] [Compound 203]			Suppression rate (%) (TNF α production): 100%; Number of vomiting animals/Number of experimental animals (Sunkus murinus): 1/5
COc1ccc(/C=C/c2c(Cl)cncc2Cl)c2cc(-c3ccccn3)oc12 [Compound 84, (E)-4-[2-(3,5-Dichloro-4-pyridyl)ethenyl]-7-methoxy-2-(2-pyridyl)benzofuran]	98	157 to 158	
COc1ccc(C(=O)Cc2c(Cl)cncc2Cl)c2c1OC1(CCCCC1)C2 [Compound 101, 4-[2-(3,5-Dichloro-4-pyridyl)-1-oxoethyl]-7-methoxy-spiro[2,3-dihydrobenzofuran-2,1′-cyclohexane]]	100	149 to 151	
COc1ccc(C(=O)Nc2c(Cl)cncc2Cl)c2c1OC1(C=C2)CCCC1 [Compound 123, 5-(3,5-Dichloro-4-pyridylaminocarbonyl)-8-methoxy-spiro[benzopyran-2,1′-cyclopentane]]	87	129 to 131	
COc1ccc(C(=O)Nc2c(Cl)cncc2Cl)c2c1OC1(CCCC1)O2 [Compound 134, 7-(3,5-Dichloro-4-pyridylaminocarbonyl)-4-methoxy-spiro[1,3-benzodioxole-2,1′-cyclopentane]]	100	168 to 170	
COc1ccc(C=Cc2c(Cl)cncc2Cl)c2c1OC1(CCCC1)O2 [Compound 138, 7-[2-(3,5-Dichloro-4-pyridyl)ethenyl]-4-methoxy-spiro[1,3-benzodioxole-2,1′-cyclopentane]]	100	100 to 101	
COc1ccc(C(=O)Cc2c(Cl)cncc2Cl)c2c(CC(=O)OCCc3ccccc3)coc12 [Compound 153, 4-[2-(3,5-Dichloro-4-pyridyl)-1-oxoethyl]-7-methoxy-3-phenethyloxycarbonylmethylbenzofuran]	94	183 to 184	
COc1ccc(C(=O)Cc2c(Cl)cncc2Cl)c2c(CC(=O)OCc3ccccc3[N+](=O)[O-])coc12 [Compound 154, 4-[2-(3,5-Dichloro-4-Pyridyl)-1-oxoethyl]-7-methoxy-3-[(2-nitrobenzyl)oxycarbonylmethyl]benzofuran]	92	200 to 201	
COc1ccc(C(=O)Cc2c(Cl)cncc2Cl)c2c(CC(=O)NCc3ccccc3)coc12 [Compound 155, 3-Benzylaminocarbonylmethyl-4-[2-(3,5-dichloro-4-pyridyl)-1-oxoethyl]-7-methoxybenzofuran]	96	244 to 246	
COc1ccc(C(=O)Cc2c(Cl)cncc2Cl)c2c(CC(=O)Nc3cccnc3)coc12 [Compound 156, 4-[2-(3,5-Dichloro-4-pyridyl)-1-oxoethyl]-7-methoxy-3-[(3-pyridyl)aminocarbonylmethyl]benzofuran]	90	252 to 255	
COc1ccc(C(=O)Cc2c(Cl)cncc2Cl)c2c(CC(=O)NCc3ccccn3)coc12.Cl.Cl [Compound 157, 4-[2-(3,5-Dichloro-4-pyridyl)-1-oxoethyl]-7-methoxy-3-[(2-pyridylmethyl)aminocarbonylmethyl]benzofuran.2 hydrochloride]			Enzyme Inhibitory Activity (%, 10^−7 M) (phosphodiesterase 4A): 89%
CCOC(=O)c1coc2c(OC)ccc(C(=O)Cc3c(Cl)cncc3Cl)c12 [Compound 159, Ethyl 4-[2-(3,5-dichloro-4-pyridyl)-1-oxoethyl]-7-methoxybenzofuran-3-carboxylate]	99		
COc1ccc(C(=O)Cc2c(Cl)cccc2Cl)c2cc(C(=O)c3ccccn3)oc12 [Compound 160, 4-[2-(2,6-Dichlorophenyl)-1-oxoethyl]-7-methoxy-2-(2-pyridylcarbonyl)benzofuran]	91	228 to 229	
COc1ccc(C(=O)Cc2c(Cl)cccc2Cl)c2cc(C(=O)Nc3cccc(F)c3)oc12 [Compound 161, 4-[2-(2,6-Dichlorophenyl)-1-oxoethyl]-2-[(3-fluorophenyl)aminocarbonyl]-7-methoxybenzofuran]	87	251 to 252	
COc1ccc(C(=O)Cc2c(Cl)cccc2Cl)c2cc(C(=O)c3ccccc3)oc12 [Compound 163, 2-Benzoyl-4-[2-(2,6-dichlorophenyl)-1-oxoethyl]-7-methoxybenzofuran]	96	223 to 224	
COc1ccc(C(=O)Cc2ccncc2)c2cc(C(=O)Nc3ccccc3)oc12.Cl [Compound 165, 7-Methoxy-4-[1-oxo-2-(4-pyridyl)ethyl]-2-(phenylaminocarbonyl)benzofuran.hydrochloride]			Enzyme Inhibitory Activity (%, 10^−7 M) (phosphodiesterase 4A): 64%
COc1ccc(C(=O)Nc2c(Cl)cccc2Cl)c2cc(C(=O)c3ccccc3)oc12 [Compound 168, 2-Benzoyl-4-[(2,6-dichiorophenyl)aminocarbonyl]-7-methoxybenzofuran]			Enzyme Inhibitory Activity (%, 10^−7 M) (phosphodiesterase 4A): 96%
COc1ccc(C(=O)Cc2c(Cl)cncc2Cl)c2c1OC1(CCCCCC1)O2 [Compound 177, 7-[2-(3,5-Dichloro-4-pyridyl)-1-oxoethyl)-4-methoxy-spiro[1,3-benzodioxole-2,1′-cycloheptane]]	93		
COc1ccc(C(=O)Cc2c(Cl)cncc2Cl)c2c1OCCCO2 [Compound 189, 6-[2-(3,5-dichloro-4-pyridyl)-1-oxoethyl]-3,4-dihydro-9-methoxy-2H-1,5-benzodioxepin]	84	150 to 151	
COc1ccc(/C=C/c2c(Cl)cncc2Cl)c2c1OCCCO2 [Compound 191, (E)-6-[2-(3,5-dichloro-4-pyridyl)ethenyl]-3,4-dihydro-9-methoxy-2H-1,5-benzodioxepin]	84	118 to 120	
COc1ccc(C(=O)Cc2c(Cl)cncc2Cl)c2c1OCCCCO2 [Compound 194, 7-[2-(3,5-dichloro-4-pyridyl)-1-oxoethyl]-10-methoxy-2,3,4,5-tetrahydro-1,6-benzodioxocin]	92	142 to 143	
COc1ccc(C(=O)Cc2c(Cl)c[n+]([O-])cc2Cl)c2c1OCCCCO2 [Compound 195, 7-[2-(3,5-dichloro-N-oxo-4-pyridyl)-1-oxoethyl]-10-methoxy-2,3,4,5-tetrahydro-1,6-benzodioxocin]			Enzyme Inhibitory Activity (%, 10^−7 M) (phosphodiesterase 4A): 93%
COc1ccc(C(=O)Nc2c(Cl)cncc2Cl)c2c1OC(C)(C)O2 [Compound 199, 7-(3,5-dichloro-4-pyridylaminocarbonyl)-4-methoxy-2,2-dimethyl-3,4-benzodioxole]			Enzyme Inhibitory Activity (%, 10^−7 M) (phosphodiesterase 4A): 57%
COc1ccc(C(=O)Nc2c(Cl)cncc2Cl)c2cc(C(=O)N3CCN(C)CC3)oc12 [Compound 201, 4-(3,5-dichloro-4-pyridyl)aminocarbonyl-7-methoxy-2-(4-methyl-1-piperazinyl)carbonylbenzofuran]			Suppression rate (%) (TNF α production): 70%; Number of vomiting animals/Number of experimental animals (Sunkus murinus): 0/5
COc1ccc(C(=O)Nc2c(Cl)cncc2Cl)c2cc(C(=O)N3CCN(CCO)CC3)oc12 [Compound 202, 4-(3,5-dichloro-4-pyridyl)aminocarbonyl-7-methoxy-2-[4-(2-hydroxyethyl)-1-piperazinyl]carbonylbenzofuran]			Suppression rate (%) (TNF α production): 92%; Number of vomiting animals/Number of experimental animals (Sunkus murinus): 0/5
